Test results published in patent US6680058B1, “Compositions and methods for contraception in or sterilization of mammals” (Board of Supervisors of Louisiana State University and …, priority 1997, dated 2004).
Where no end group is shown, it is not given here.

Key:
[1] = target: T1, GnRH receptor (Rattus norvegicus, UniProt P30969); assay: Displacement of radiolabelled monoiodinated-GnRH from rat pituitary membranes (Example 24); format: binding; settings: molar basis over a 1000-fold concentration range (n=6); native GnRH = 100%
T1 construct: specifically displaced radiolabelled monoiodinated-GnRH from rat pituitary membranes; from tissue; host or cells: rat pituitary membranes
T1 sequence (P30969 1-327): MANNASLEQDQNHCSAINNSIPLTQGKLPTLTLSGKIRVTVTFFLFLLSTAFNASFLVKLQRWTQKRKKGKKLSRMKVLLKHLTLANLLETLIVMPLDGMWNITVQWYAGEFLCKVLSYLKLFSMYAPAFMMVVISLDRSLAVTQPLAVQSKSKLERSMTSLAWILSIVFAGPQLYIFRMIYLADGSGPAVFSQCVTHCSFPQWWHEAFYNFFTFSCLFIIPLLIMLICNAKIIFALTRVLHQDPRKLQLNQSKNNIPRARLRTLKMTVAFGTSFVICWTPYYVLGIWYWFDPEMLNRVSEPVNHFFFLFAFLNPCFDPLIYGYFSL
Excerpt: We also synthesized D-Lys^6GnRH (SEQ. ID NO. 13), so that hecate could be conjugated to the D-Lys^6, a position that could minimize interference with binding of the GnRH domain to the GnRH receptor. These synthetic peptides specifically displaced radiolabelled monoiodinated-GnRH from rat pituitary membranes.

[2] = system: sexually immature female rats; assay: Thirty-three-day-old sexually immature female rats, intravenous, sacrificed 14 days after treatment, histology and immunocytochemistry (Examples 35-38); format: in vivo, rat; settings: Treatment 37: 0.5 mg i.v.
Experimental: Another set of experiments was performed to study the in vivo effects of the GnRH-hecate conjugate on female rats and rabbits. The ovaries, uterus, oviducts, adrenals, spleen, thyroids, pancreas, liver, lungs, and heart were processed for histological analysis. […] The immunocytochemical staining procedures we used followed generally the procedures of M. Rahmanian et al., “Histological and immunocytochemical characterization of pituitary cell types in ponies,” Proc. 13th Soc. Equine Nutrition & Phys. Symp., pp. 348-349 (1993); M. Rahmanian et al., “Immunocytochemical localization of luteinizing hormone and follicle-stimulating hormone in the equine pituitary,” J. Anim. Sci., vol. 76, pp. 839-846 (1998); M. Rahmanian et al., “Immunocytochemical localization of prolactin and growth hormone in the equine pituitary,” Animal Sci., vol. 75, pp. 3010-3018 (1997); and P. Melrose et al., “Comparative topography of the immunoreactive alpha-melanocyte-stimulating hormone neuronal system in the brains of horses and rats,” Brain Beh. & Evol., vol. 32, pp. 226-235 (1988).
Brains were serially sectioned on a Vibrotome from the level of the diagonal band of Broca to the mammillary body. Alternate sections were consecutively divided into four to five dishes, and sections in alternate dishes were stained with cresyl violet, or were stained immunocytochemically for GnRH or the GnRH precursor, VP, OXY, or tyrosine hydroxylase (the rate-limiting enzyme in catecholamine synthesis). In addition to the staining procedures cited above, we also used the immunocytochemical staining procedures of P. Melrose et al., “Distribution and morphology of immunoreactive gonadotropin-releasing hormone (GnRH) neurons in the basal forebrain of ponies,” J. Comp. Neurol. vol. 339, pp. 269-287 (1994); and P. Melrose et al., “Topography of oxytocin and vasopressin neurons in the forebrain of Equus caballus: Further support of proposed evolutionary relationships for proopiomelanocortin, oxytocin and vasopressin neurons,” Brain, Beh. & Evol., vol. 33, pp. 193-204 (1989).
Thirty-three-day-old, sexually immature female rats were given intravenous administrations as follow:
Animals were sacrificed 14 days after treatment.

[3] = system: sexually immature female rats; assay: Sexually immature female rats, two intravenous injections, examined after reaching breeding age (Examples 7-8); format: in vivo, rat
Experimental: Two sexually immature female rats from the same litter (age 33 days) were given two intravenous injections of saline control solution 24 hours apart. After the rats reached breeding age, they were examined 105 days post-inoculation. […] During a fourteen-day monitoring period 107 days to 121 days post-inoculation, each of the control rats completed two estrous cycles. The rats were then sacrificed and necropsied. The reproductive organs appeared histologically normal.
Two sexually immature female rats from the same litter as those of Example 7 (age 33 days) were given two intravenous injections of 500 μg GnRH/hecate fusion peptide in saline 24 hours apart. After the rats reached breeding age, they were examined 105 days post-inoculation. […] Unlike the control rats, insertion of a cotton-tipped swab into the vagina was difficult. […] The rats were then sacrificed and necropsied.

[4] = system: sexually mature female New Zealand rabbits; assay: Sexually mature female New Zealand rabbits, intravenous GnRH-hecate, GnRH challenge day 46, histology day 47 (Examples 44-46); format: in vivo, rabbit
Experimental: Seven sexually mature female New Zealand rabbits were injected intravenously with saline containing GnRH-hecate as follows:
Forty-six days later all rabbits were injected intramuscularly with 100 μg GnRH. Blood samples were collected at 0, 1, 4, and 24 hours, and LH and FSH levels in the blood samples were measured by radioimmunoassay. […] The rabbits were sacrificed the next day (day 47) for postmortem histological analysis. […] Ovarian and pituitary weights were reduced by the 10 mg GnRH-hecate treatment.

[5] = system: gonadotropes in the pituitary and neurons in the brain bearing GnRH receptors; assay: Rats, treatments generally similar to treatments 9-14, immunohistochemical staining (Example 23); format: in vivo, rat; settings: fusion peptide administered
Experimental: Subsequent experiments were conducted on rats using treatments generally similar to treatments 9-14 above. […] The selective killing of these cells was seen after the GnRH-hecate fusion peptide was administered; and after the administration of GnRH alone, followed 10 minutes later by the administration of hecate alone.

[6] = two i.v. injections of 500 μg 24 hours apart at age 33 days, necropsy after day 121

GnRH-hecate: fusion peptide of modified GnRH bonded directly to the lytic peptide hecate, SEQ. ID NO. 3 (QHWSYGLRPGFALALKALKKALKKLKKALKKAL; ends and bridges not checked; also: GnRH part modified, modification not given here)
specific displacement of the radiolabelled peptide relative to equimolar concentrations of GnRH [1]: 123%±4% | reduction of pituitary weights compared to the two GnRH control groups ([2]; 33-day-old female rat, 14 days after treatment): 13% | adrenocorticotropic hormone levels in the pars distalis ([2]; 14 days): reduced | cell bodies of GnRH-stained neurons in hypophysiotropic areas of the brain ([2]; 14 days): frequently deformed | histology of the C1 and C3 fields of the hippocampus ([2]; 14 days): histological damage to cells | number of alpha-MSH-stained cells in the pars distalis ([2]; 14 days): increased | pathological changes in any other tissues ([2]; 14 days): No pathological changes | reduction of the numbers of bLH-specific gonadotropes compared to the two GnRH control groups ([2]; 14 days): 92% | VP staining in the paraventricular nucleus ([2]; 14 days, may have been caused by a precipitate): increased staining of parvicellular VP neurons in the paraventricular nucleus | estrous cycling during fourteen-day monitoring period ([3]; two i.v. injections of 500 μg 24 hours apart at age 33 days, 107 to 121 days post-inoculation): neither of the treated rats demonstrated estrous or metestrous | insertion of a cotton-tipped swab into the vagina ([3]; two i.v. injections of 500 μg 24 hours apart at age 33 days, 105 days post-inoculation): difficult | ovarian follicles at necropsy [3, 6]: contained no large follicles, and had a high number of atretic follicles | uterine and oviductal epithelia at necropsy [3, 6]: thinned, inactive | appearance of external genitalia ([3]; two i.v. injections of 500 μg in saline 24 hours apart at age 33 days, examined 105 days post-inoculation): appeared small | LH release in response to 100 μg GnRH i.m. ([4]; 5 mg or 10 mg i.v., challenge forty-six days later, radioimmunoassay): released LH in response to the GnRH | cells staining alpha-MSH in the pituitary ([4]; 5 mg or 10 mg i.v., day 47): increased numbers | cells staining for LH in the pituitary ([4]; 5 mg or 10 mg i.v., day 47): reduced numbers | hippocampus and other areas of the brain containing high concentrations of GnRH ([4]; 5 mg or 10 mg i.v., day 47): not discernibly affected | immunoreactive GnRH in CNS areas normally containing cell bodies ([4]; 5 mg or 10 mg i.v., day 47): faint and diffusely localized | numbers of GnRH-induced ovulations ([4]; 5 mg or 10 mg i.v., day 47): reduced | numbers of corpora lutea ([4]; 5 mg or 10 mg i.v., day 47): reduced | numbers of tertiary follicles ([4]; 5 mg or 10 mg i.v., day 47): reduced | reduction in number of normal individual cell bodies ([4]; 5 mg or 10 mg i.v., day 47): at least 50% | terminal fields, which normally contain the axons of GnRH receptor neurons ([4]; 5 mg or 10 mg i.v., day 47): not stained for GnRH | number of PAS-stained pituitary cells in the pars distalis, relative to control rabbits ([4]; 5 mg or 10 mg i.v., day 47, control = 100%): 177% | ovarian weights ([4]; 10 mg i.v., day 47): reduced | pituitary weights ([4]; 10 mg i.v., day 47): reduced | LH and FSH secretion by pituitary cells [5]: no longer secreted either LH or FSH | selective cell killing seen with immunohistochemical staining ([5]; treatments generally similar to treatments 9-14): selectively killed (1) gonadotropes in the pituitary, and (2) neurons in the brain bearing GnRH receptors
